These results are taken from US8754212B2, “Process for the preparation of stable, amorphous calcium salt of (6S)-N(5)-methyl-5,6,7,8-tetrahydrofolic acid” (Cerbios-Pharma S.A., priority 2007, dated 2014).

Read-outs that look alike come from different tables or passages of the source.

The conditions of series [1]: stored at 4° C. From the text: For the determination of the purity and of the ratio of the diastereoisomers a sample of the compound of formula IV was washed with 94% (v/v) aqueous ethanol and was then dried under reduced pressure.
For series [2] the following is noted: stored at 25° C. under vacuum [2 mbar].

In the case of `CN1c2c(nc(N)[nH]c2=O)NC[C@@H]1CNc1ccc(C(=O)N[C@@H](CCC(=O)O)C(=O)O)cc1` [formula IV, (6S)—N(5)-methyl-5,6,7,8-tetrahydrofolic acid], the “HPLC purity (%)” value in series [1] (time 0 months) is recorded as 96.45%; in series [1] (time 6 months), 96.66%.
For `CN1c2c(nc(N)[nH]c2=O)NC[C@@H]1CNc1ccc(C(=O)NC(CCC(=O)[O-])C(=O)[O-])cc1.[Ca+2]` (stereo partly drawn) [formula V, calcium salt of (6S)—N(5)-methyl-5,6,7,8-tetrahydrofolic acid], the “HPLC assay (%)” value in series [2] (time 0 months) is 99.0%; in series [2] (time 1 month), 98.8%; in series [2] (time 2 months) it was 99.8%; in series [2] (time 3 months) it was 100.2%; in series [2] (time 6 months), 99.9%; in series [2] (time 9 months) it was 100.7%. The “HPLC purity (%)” value in series [2] (time 0 months) was 98.7%; in series [2] (time 1 month), 98.7%; in series [2] (time 2 months), 98.9%; in series [2] (time 3 months), 98.8%; in series [2] (time 6 months) it was 98.5%; in series [2] (time 9 months) it was 98.9%.
